Results taken from patent US20250340848A1, “METHODS FOR CHEMICAL REPROGRAMMING AND PLURIPOTENT STEM CELLS” (Peking University, priority 2022, published 2025).

Experiments:
[1] = test system: cellular retinoic acid binding protein (CRABP); conditions: cited from earlier work
hADSC = test: Chemical reprogramming of hADSC per Example 6A, OCT4-positive hCiPSC clones; assay type: cell-based, human
Protocol: In short, hADSC or hASF are seeded at 1×10^4 cells/well in a 12-well plate, or at 0.5-0.6×10^4 cells/well in a 24-well plate, and cultured overnight. The next day, the medium is replaced with Stage I induction medium (Knockout DMEM supplemented with 2% B27 supplement, 1% KSR, 1% GlutaMAX, 1% NEAA, 1% penicillin-streptomycin, […] Vc2p, 5 mM LiCl, 1 mM NAM, 20 ng/mL BMP4, 5 μM CHIR999021, 10 μM 616452, 2 μM TTNPB, 0.5 μM SAG, 2 μM EPZ5676, 0.05 μM DZNep, 1 μM ruxolitinib, 0.5 μM VTP50469, 1 μM HY-10249A (CAS No. 842148-40-7), 0.2 μM JNKIN8, and 0.2 μM SETD2-IN-1), and cultured under hypoxic conditions (5% 02) until a monolayer of epithelial-like cells appears and reaches approximately 100% confluence. hADSC cells typically require 8-10 days, and hASFs typically require 9-16 days. […]
OCT4 immunofluorescent staining is performed on the obtained hCiPSC clones, with OCT4 positivity serving as an indicator of hCiPSC clones. The reprogramming efficiency of the method is calculated by dividing the number of OCT4-positive clones by the number of initial hADSC or hASFs plated. […]

## CC(C)(C)c1cc(C(=O)/C=C/c2ccc(C(=O)O)cc2)cc(C(C)(C)C)c1 [Ch 55, 4-[(1E)-3-[3,5-bis(1,1-Dimethylethyl)phenyl]-3-oxo-1-propenyl]benzoic acid]
[1]
  affinity for cellular retinoic acid binding protein (CRABP): low affinity

## CCc1c(C#N)c(SC(C(N)=O)c2ccccc2)nc(N2CCC(N)CC2)c1C#N (stereo not drawn) [GSK3685032]
hADSC; 6+4+8, added to Stage II induction medium (RA 5 μM, GSK3685032 0.02 μM), FIG. 29
  transformation into pluripotent stem cells vs control: significantly improve the transformation of LIN28A-positive monolayer epithelial-like cells into pluripotent stem cells

## O=C(NNS(=O)(=O)c1ccccc1F)c1cc(F)cc(-c2ccccn2)c1 [WM1119]
hADSC; 8+4+8 culture method, HATi 0.5 μM in stage I induction medium, FIG. 27A
  transformation efficiency: about 2.4%
